Laboratory results reported in patent US7713937B2, “Synthetic peptide amides and dimeric forms thereof” (Cara Therapeutics, Inc., priority 2006, dated 2010).
Square brackets hold non-standard residues; d marks the D form. Peptide text beside a SMILES is read from it. * marks the point of attachment. Homopiperazine(4-amidino) = N=C(N)N1CCCN(*)CC1; dAgb = N=C(N)NCC[C@@H](N)C(=O)O; Homopiperazinyl = C1CNCCN(*)C1; dAgp = N=C(N)NC[C@@H](N)C(=O)O; dNle = CCCC[C@@H](N)C(=O)O; dOrn = NCCC[C@@H](N)C(=O)O; dDab = NCC[C@@H](N)C(=O)O; Morpholide = C1CN(*)CCO1; Inp = O=C(O)C1CCNCC1

Experiments:
[1] = target: T1, mouse kappa opioid receptor (mKOR) (Mus musculus, UniProt P33534); test: cell-based; conditions: for Emax: read-out: mKOR Efficacy(%)
T1 construct: Stimulation of Endogenous Mouse Kappa-Opioid Receptor in R1.G1 Cells; host or cells: R1.G1 mouse thymoma cells

[2] = target: T2, human kappa opioid receptor (hKOR) (Homo sapiens, UniProt P41145); test: cell-based; conditions: for Emax: HEK293, read-out: hKOR Efficacy(%)
T2 construct: expressed in transfected cells; host or cells: HEK-293 cells, transient transfection with Fugene6
T2 sequence (P41145 whole entry): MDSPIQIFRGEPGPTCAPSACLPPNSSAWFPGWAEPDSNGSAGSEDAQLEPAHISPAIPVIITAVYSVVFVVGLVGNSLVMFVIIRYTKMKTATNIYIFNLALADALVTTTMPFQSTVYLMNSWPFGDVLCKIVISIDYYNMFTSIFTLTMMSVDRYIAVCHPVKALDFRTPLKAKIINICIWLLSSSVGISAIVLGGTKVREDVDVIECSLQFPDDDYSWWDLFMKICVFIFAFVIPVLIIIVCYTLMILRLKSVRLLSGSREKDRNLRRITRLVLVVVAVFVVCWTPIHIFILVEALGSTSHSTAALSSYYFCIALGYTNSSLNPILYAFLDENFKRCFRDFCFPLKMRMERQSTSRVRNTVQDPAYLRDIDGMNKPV

T1 sequence (P33534 whole entry): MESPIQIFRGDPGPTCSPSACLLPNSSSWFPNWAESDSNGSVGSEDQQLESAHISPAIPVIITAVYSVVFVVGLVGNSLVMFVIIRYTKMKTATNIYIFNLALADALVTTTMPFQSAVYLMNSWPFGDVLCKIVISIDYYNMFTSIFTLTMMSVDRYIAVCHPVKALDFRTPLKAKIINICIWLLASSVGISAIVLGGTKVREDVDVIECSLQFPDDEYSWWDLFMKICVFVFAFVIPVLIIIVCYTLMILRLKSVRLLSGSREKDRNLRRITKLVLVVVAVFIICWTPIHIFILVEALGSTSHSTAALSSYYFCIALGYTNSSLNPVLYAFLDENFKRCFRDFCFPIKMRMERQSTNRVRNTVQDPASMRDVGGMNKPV

Structure (SMILES) | EC50 [1] [pM] | Emax [1] [%] | EC50 [2] [pM] | Emax [2] [%]
CC(C)C[C@@H](NC(=O)[C@@H](Cc1ccccc1)NC(=O)[C@H](N)Cc1ccccc1)C(=O)N[C@H](CNC(=N)N)C(=O)N1CCCNCC1 [Compound (20), D-Phe-D-Phe-D-Leu-(β-amidino)D-Dap-[homopiperazine amide]] (H-[dF][dF][dL][dAgp]-Homopiperazinyl) | 491 | 102 | 390 | 84
CCCC[C@@H](NC(=O)[C@@H](Cc1ccccc1)NC(=O)[C@H](N)Cc1ccccc1)C(=O)N[C@H](CNC(=N)N)C(=O)N1CCCNCC1 [Compound (21), D-Phe-D-Phe-D-Nle-(β-amidino)D-Dap-[homopiperazine amide]] (H-[dF][dF][dNle][dAgp]-Homopiperazinyl) | 732 | 103 | 1060 | 99
CC(C)C[C@@H](NC(=O)[C@@H](Cc1ccccc1)NC(=O)[C@H](N)Cc1ccccc1)C(=O)N[C@H](CCN)C(=O)N1CCCN(C(=N)N)CC1 [Compound (22), D-Phe-D-Phe-D-Leu-D-Dbu-[4-amidinohomopiperazine amide]] (H-[dF][dF][dL][dDab]-{Homopiperazine(4-amidino)}) | 95 | 103 | 180 | 86
CC(C)C[C@@H](NC(=O)[C@@H](Cc1ccccc1)NC(=O)[C@H](N)Cc1ccccc1)C(=O)N[C@H](CCNC(=N)N)C(=O)N1CCCN(C(=N)N)CC1 [Compound (23), D-Phe-D-Phe-D-Leu-D-Nar-[4-amidinohomopiperazine amide]] (H-[dF][dF][dL][dAgb]-{Homopiperazine(4-amidino)}) | 91 | 104 | 170 | 84
CC(C)C[C@@H](NC(=O)[C@@H](Cc1ccccc1)NC(=O)[C@H](N)Cc1ccccc1)C(=O)N[C@H](CCCNC(=N)N)C(=O)N1CCCN(C(=N)N)CC1 [Compound (24), D-Phe-D-Phe-D-Leu-D-Arg-[4-amidinohomopiperazine amide]] (H-[dF][dF][dL][dR]-{Homopiperazine(4-amidino)}) | 36 | 97 | 90 | 93
CC(C)C[C@@H](NC(=O)[C@@H](Cc1ccccc1)NC(=O)[C@H](N)Cc1ccccc1)C(=O)N[C@H](CCCCN)C(=O)N1CCC2(CCNC2=O)CC1 [Compound (25), D-Phe-D-Phe-D-Leu-D-Lys-[2,8-diazaspiro[4,5]decan-1-one amide]] | 31.4 | 82 | 2.7 | 101
CC(C)C[C@@H](NC(=O)[C@@H](Cc1ccccc1)NC(=O)[C@H](N)Cc1ccccc1)C(=O)N[C@H](CCCCN)C(=O)N1CCC2(CCN(C)C2=O)CC1 [Compound (26), D-Phe-D-Phe-D-Leu-D-Lys-[2-methyl-2,8-diazaspiro[4,5]decan-1-one amide]] | 19.4 | 86 | 8.3 | 99
CC(C)C[C@@H](NC(=O)[C@@H](Cc1ccccc1)NC(=O)[C@H](N)Cc1ccccc1)C(=O)N[C@H](CCCCN)C(=O)N1CCC2(CC1)NC(=O)NC2=O [Compound (27), D-Phe-D-Phe-D-Leu-D-Lys-[1,3,8-triazaspiro[4,5]decane-2,4-dione amide]] | 5.6 | 87 | < 1 | 88
CC(C)C[C@@H](NC(=O)[C@@H](Cc1ccccc1)NC(=O)[C@H](N)Cc1ccccc1)C(=O)N[C@H](CCCCN)C(=O)N1CCC(n2c(=O)[nH]c3cc(Cl)ccc32)CC1 [Compound (28), D-Phe-D-Phe-D-Leu-D-Lys-[5-chloro-1-(piperidin-4-yl)-1H-benzo[d]imidazol-2(3)H-one amide]] | – | 83 | – | 100
CC(C)C[C@@H](NC(=O)[C@@H](Cc1ccccc1)NC(=O)[C@H](N)Cc1ccccc1)C(=O)N[C@H](CCCCN)C(=O)N1CCC(C(=O)N2CCOCC2)CC1 [Compound (29), D-Phe-D-Phe-D-Leu-D-Lys-[morpholino(piperidin-4-yl)methanone amide]] (H-[dF][dF][dL][dK][Inp]-Morpholide) | 46.4 | 86 | 14.5 | 100
CC(C)C[C@@H](NC(=O)[C@@H](Cc1ccccc1)NC(=O)[C@H](N)Cc1ccccc1)C(=O)N[C@H](CCCCN)C(=O)N1CCC(n2cc(-c3ccccc3)[nH]c2=O)CC1 [Compound (30)] | 129 | 88 | – | 95
Cc1nnc(C)n1C1CCN(C(=O)[C@@H](CCCCN)NC(=O)[C@@H](CC(C)C)NC(=O)[C@@H](Cc2ccccc2)NC(=O)[C@H](N)Cc2ccccc2)CC1 [Compound (31), D-Phe-D-Phe-D-Leu-D-Lys-[4-(3,5-dimethyl-4H-1,2,4-triazol-4-yl)piperidine amide]] | 21.6 | 86 | 4.2 | 95
CC(C)C[C@@H](NC(=O)[C@@H](Cc1ccccc1)NC(=O)[C@H](N)Cc1ccccc1)C(=O)N[C@H](CCCCN)C(=O)N1CCC2(CC1)C(=O)NCN2c1ccccc1 [Compound (33), D-Phe-D-Phe-D-Leu-D-Lys-[1-phenyl-1,3,8-triazaspiro[4.5]decan-4-one amide]] | – | 86 | – | 101
CC(C)C[C@@H](NC(=O)[C@@H](Cc1ccccc1)NC(=O)[C@H](N)Cc1ccccc1)C(=O)N[C@H](CCCCN)C(=O)NCc1cn2ccccc2n1 [Compound (34), D-Phe-D-Phe-D-Leu-D-Lys-[imidazo[1,2-a]pyridine-2-ylmethyl amide]] | 354 | 90 | 20.8 | 101
Cc1cnc(CNC(=O)[C@@H](CCCCN)NC(=O)[C@@H](CC(C)C)NC(=O)[C@@H](Cc2ccccc2)NC(=O)[C@H](N)Cc2ccccc2)cn1 [Compound (35), D-Phe-D-Phe-D-Leu-D-Lys-[(5-methylpyrazin-2-yl)methyl amide]] | 35.9 | – | 6.4 | –
CC(C)C[C@@H](NC(=O)[C@@H](Cc1ccccc1)NC(=O)[C@H](N)Cc1ccccc1)C(=O)N[C@H](CCCCN)C(=O)N1CCC(n2c(=O)[nH]c3ccccc32)CC1 [Compound (36), D-Phe-D-Phe-D-Leu-D-Lys-[1-(piperidin-4-yl)-1H-benzo[d]imidazol-2(3H)-one amide]] | – | 87 | – | 100
CC(C)C[C@@H](NC(=O)[C@@H](Cc1ccccc1)NC(=O)[C@H](N)Cc1ccccc1)C(=O)N[C@H](CCCCN)C(=O)N1CCc2[nH]ncc2C1 [Compound (37), D-Phe-D-Phe-D-Leu-D-Lys-[4,5,6,7-tetrahydro-1H-pyrazolo[4,3-c]pyridine amide]] | 23.4 | 90 | 5.2 | 100
CC(C)C[C@@H](NC(=O)[C@@H](Cc1ccccc1)NC(=O)[C@H](N)Cc1ccccc1)C(=O)N[C@H](CCCN)C(=O)NCCN1CCN(CC(=O)O)CC1 [Compound (38), D-Phe-D-Phe-D-Leu-D-Orn-[4-(2-aminoethyl)-1-carboxymethyl-piperazine]-OH] | 403 | 98 | – | 102
CC(C)C[C@@H](NC(=O)[C@@H](Cc1ccccc1)NC(=O)[C@H](N)Cc1ccccc1)C(=O)N[C@H](CCCN)C(=O)N1CCC(CC(=O)O)CC1 [Compound (39), D-Phe-D-Phe-D-Leu-D-Orn-[4-carboxymethyl-piperidine]-OH] | 80 | 97 | 120 | 99
CC(C)C[C@@H](NC(=O)[C@@H](Cc1ccccc1)NC(=O)[C@H](N)Cc1ccccc1)C(=O)N[C@H](CCCN)C(=O)N1CCC(N)(C(=O)O)CC1 [Compound (43), D-Phe-D-Phe-D-Leu-D-Orn-[ω(4-aminopiperidine-4-carboxylic acid)]-OH] | 41 | 100 | 140 | 107
CC(C)C[C@@H](NC(=O)[C@@H](Cc1ccccc1)NC(=O)[C@H](N)Cc1ccccc1)C(=O)N[C@H](CCCN)C(=O)N1CCC(CC(N)C(=O)O)CC1 (stereo partly drawn) [Compound (44), D-Phe-D-Phe-D-Leu-D-Orn-[ω(D/L-2-amino-3-(4-N-piperidinyl)propionic acid)]-OH] | 28 | 102 | 130 | 104
CC(C)C[C@@H](NC(=O)[C@@H](Cc1ccccc1)NC(=O)[C@H](N)Cc1ccccc1)C(=O)N[C@H](CCCN)C(=O)N1CCNC(C(=O)O)C1 (stereo partly drawn) [Compound (45), D-Phe-D-Phe-D-Leu-D-Orn-[ω(D/L-4-piperazine-2-carboxylic acid)]-OH] | 197 | 102 | 150 | 93
CC(C)C[C@@H](NC(=O)[C@@H](Cc1ccccc1)NC(=O)[C@H](N)Cc1ccccc1)C(=O)N[C@H](CCCN)C(=O)N1CCC(C(=O)O)CC1 [Compound (46), D-Phe-D-Phe-D-Leu-D-Orn-[Isonipecotic acid]-OH] (H-[dF][dF][dL][dOrn][Inp]-OH) | 88 | 92 | 280 | 128
CC(C)C[C@@H](NC(=O)[C@@H](Cc1ccccc1)NC(=O)[C@H](N)Cc1ccccc1)C(=O)N[C@H](CCCN)C(=O)N1CCC(N2CCC[C@H]2C(=O)O)CC1 [Compound (47), D-Phe-D-Phe-D-Leu-D-Orn-[N-(4-piperidinyl)-L-proline]-OH] | 85 | 99 | 170 | 92
CC(C)C[C@@H](NC(=O)[C@@H](Cc1ccccc1)NC(=O)[C@H](N)Cc1ccccc1)C(=O)N[C@H](CCCN)C(=O)N1CCC(CCCC(=O)O)CC1 [Compound (48), D-Phe-D-Phe-D-Leu-D-Orn-[4-(4-piperidinyl)-butanoic acid]-OH] | 92 | 100 | 260 | 97
CC(C)C[C@@H](NC(=O)[C@@H](Cc1ccccc1)NC(=O)[C@H](N)Cc1ccccc1)C(=O)N[C@H](CCCN)C(=O)NCCN1CCN(CC(N)=O)CC1 [Compound (49), D-Phe-D-Phe-D-Leu-D-Orn-[4-(2-aminoethyl)-1-carboxymethyl-piperazine]-NH2] | 115 | 96 | 220 | 96
